EP4650361A1, “ARGININE OPTICAL PROBE” (East China University of Science and Technology, priority 2023, dated 2024)
pKd: −log10 of the molar value.

Legend:
[1] = test system: Salmonella Typhimurium arginine-binding protein STM4351 variant T32A with cpYFP inserted at the 200/203 site (STM4351-200/203-T32A-cpYFP), SEQ ID NO: 4; test: Fluorescence response of purified probe to arginine; conditions: signal with 100 mM arginine divided by signal without arginine, Figure 2
Description: (§1) • 1. Transform the pET28a-based arginine probe plasmid into BL21(DE3), culture overnight in an inverted manner, pick a clone from the plate into a 250 ml conical flask, place in a 37 °C shaker, culture at 220 rpm until OD = 0.4-0.8, add IPTG (1 M) at 1/1000 (v/v), and induce expression at 18 °C for 24-36 h. • 2. After induction expression, collect the bacteria by centrifugation at 4000 rpm for 30 minutes, add 50 mM phosphate buffer to resuspend the bacterial pellet, and ultrasonically disrupt until the bacteria are clarified. Centrifuge at 9600 rpm at 4 °C for 20 minutes. • 3. The centrifuged supernatant is purified by a self-assembled nickel column affinity chromatography column to obtain the protein, and the protein after nickel column affinity chromatography is then passed through a self-assembled desalting column to obtain the protein dissolved in 20 mM MOPS buffer (pH 7.4) or phosphate buffer PBS. • 4. The purified arginine-binding protein mutant protein is identified by SDS-PAGE, and the probe is diluted with assay buffer (100 mM HEPES, 100 mM NaCl, pH 7.3) or phosphate buffer PBS to a final concentration of 5-10 µM protein solution. […] Take 100 µl of 5 µM protein solution, incubate at 37 °C for 5 min, add arginine respectively and mix to a final concentration of 100 mM, and measure the light absorption of the protein at 340 nm using a multifunctional fluorescence microplate reader. • 6. Take 100 µl of 1 µM fluorescent probe solution, incubate at 37 °C for 5 min, add arginine for titration, and measure the fluorescence intensity of the protein at 528 nm emission after 485 nm fluorescence excitation. The measurement of fluorescence excitation and emission of samples is completed using a multifunctional fluorescence microplate reader. • 7. Take 100 µl of 1 µM fluorescent probe solution, incubate at 37 °C for 5 min, add arginine, and measure the absorption spectrum and fluorescence spectrum of the probe protein. The measurement of absorption spectrum and fluorescence spectrum of samples is completed by a spectrophotometer and a fluorescence spectrophotometer. […]

[2] = test system: Salmonella Typhimurium arginine-binding protein STM4351 variant D91A with cpYFP inserted at the 200/203 site (STM4351-200/203-D91A-cpYFP), SEQ ID NO: 9; test: as above; conditions: signal with 100 mM arginine divided by signal without arginine, Figure 2
Description: as §1

[3] = test system: Salmonella Typhimurium arginine-binding protein STM4351 variant H140A with cpYFP inserted at the 200/203 site (STM4351-200/203-H140A-cpYFP), SEQ ID NO: 14; test: as above; conditions: signal with 100 mM arginine divided by signal without arginine, Figure 2
Description: as §1

[4] = test system: Salmonella Typhimurium arginine-binding protein STM4351 variant G89A with cpYFP inserted at the 200/203 site (STM4351-200/203-G89A-cpYFP), SEQ ID NO: 7; test: Fluorescence response and titration of purified probe with arginine
Description: as §1, with “3.” for “3. The centrifuged supernatant is purified by a self-assembled nickel column affinity chromatography column to obtain the protein, and the protein after nickel column affinity chromatography is then passed through a self-assembled desalting column to obtain the protein dissolved in 20 mM MOPS buffer (pH 7.4) or phosphate buffer PBS. • 4. The purified arginine-binding protein mutant protein is identified by SDS-PAGE, and the probe is diluted with assay buffer (100 mM HEPES, 100 mM NaCl, pH 7.3) or phosphate buffer PBS to a final concentration of 5-10 µM protein solution.”, “protein.” for “protein. The measurement of absorption spectrum and fluorescence spectrum of samples is completed by a spectrophotometer and a fluorescence spectrophotometer.”

[5] = test system: Salmonella Typhimurium arginine-binding protein STM4351 variant T138A with cpYFP inserted at the 200/203 site (STM4351-200/203-T138A-cpYFP), SEQ ID NO: 12; test: as above
Description: as §1

[6] = test system: Salmonella Typhimurium arginine-binding protein STM4351 variant E37A with cpYFP inserted at the 200/203 site (STM4351-200/203-E37A-cpYFP), SEQ ID NO: 5; test: as above
Description: • 1. Transform the pET28a-based arginine probe plasmid into BL21(DE3), culture overnight in an inverted manner, pick a clone from the plate into a 250 ml conical flask, place in a 37 °C shaker, culture at 220 rpm until OD = 0.4-0.8, add IPTG (1 M) at 1/1000 (v/v), and induce expression at 18 °C for 24-36 h. • 2. After induction expression, collect the bacteria by centrifugation at 4000 rpm for 30 minutes, add 50 mM phosphate buffer to resuspend the bacterial pellet, and ultrasonically disrupt until the bacteria are clarified. Centrifuge at 9600 rpm at 4 °C for 20 minutes. • 3. The centrifuged supernatant is purified by a self-assembled nickel column affinity chromatography column to obtain the protein, and the protein after nickel column affinity chromatography is then passed through a self-assembled desalting column to obtain the protein dissolved in 20 mM MOPS buffer (pH 7.4) or phosphate buffer PBS. • 4. The purified arginine-binding protein mutant protein is identified by SDS-PAGE, and the probe is diluted with assay buffer (100 mM HEPES, 100 mM NaCl, pH 7.3) or phosphate buffer PBS to a final concentration of 5-10 µM protein solution. Prepare arginine into a stock solution with a final concentration of 1 M using assay buffer (20 mM MOPS, pH 7.4) or phosphate buffer PBS. • 5. Take 100 µl of 5 µM protein solution, incubate at 37 °C for 5 min, add arginine respectively and mix to a final concentration of 100 mM, and measure the light absorption of the protein at 340 nm using a multifunctional fluorescence microplate reader. • 6. Take 100 µl of 1 µM fluorescent probe solution, incubate at 37 °C for 5 min, add arginine for titration, and measure the fluorescence intensity of the protein at 528 nm emission after 485 nm fluorescence excitation. The measurement of fluorescence excitation and emission of samples is completed using a multifunctional fluorescence microplate reader. • 7. Take 100 µl of 1 µM fluorescent probe solution, incubate at 37 °C for 5 min, add arginine, and measure the absorption spectrum and fluorescence spectrum of the probe protein. The measurement of absorption spectrum and fluorescence spectrum of samples is completed by a spectrophotometer and a fluorescence spectrophotometer.
Screen the purified STM4351-cpYFP fusion protein for arginine response, and divide the detection signal of the fusion fluorescent protein containing 100 mM arginine by the detection signal of the fusion fluorescent protein without arginine. […]
Purify the mutant STM4351-200/203-E37A-cpYFP with high response multiple and good specificity. […] Determination of emission spectrum: fix the excitation wavelengths at 420 nm and 485 nm respectively, record the emission spectrum at […]-540 nm, and read once every 5 nm.

[7] = 500 mM arginine compared with 0 mM arginine, Figure 4

In the case of N=C(N)NCCC[C@H](N)C(=O)O [arginine, Arginine], the response to arginine [1] was “exceeding 3 times”, the response to arginine [2] was “exceeding 3 times” and the response to arginine [3] was “exceeding 3 times”. For the same molecule, the “response to arginine, response multiple” value ([4]; Figure 3) was “about 1.29”, the pKd ([4]; Figure 3, read-out: affinity for the substrate) was 4.63 and the “response to arginine, response multiple” value ([5]; arginine titration, Figure 3) was roughly 3.14. For the same molecule, the pKd ([5]; arginine titration, Figure 3, read-out: affinity for the substrate) was 3.72, the response to arginine ([5]; signal with 100 mM arginine divided by signal without arginine, Figure 2) was “exceeding 3 times” and the “fluorescence intensity under 420 nm excitation” value [6, 7] was “basically unchanged”. The “fluorescence intensity under 485 nm excitation” value [6, 7] was “about 15.0 times”, the response to arginine ([6]; arginine titration, Figure 3) was “about 15 times” and the pKd ([6]; arginine titration, Figure 3, saturation at 10 mM arginine, read-out: affinity for the substrate) was 3.68 to 3.77.
